*1 amine or outer side, *2 acyl side, *3 side chain or, on linkers, in order; H or OH if unused. Where a SMILES comes first, the peptide text is derived from it. The star is where a group is joined. X1 = O=C(CCCC[C@@H]1SC[C@@H]2NC(=O)N[C@@H]21)NCCCOCCOCCOCCCN*; Suc = O=C(CCC(=O)[*:2])[*:1]
Assays:
MAGI3 PDZ 2 = target: T1, MAGI3 PDZ 2 (Homo sapiens, UniProt Q5TCQ9); assay: Holdup assay, MAGI3-2; assay type: binding; details: for BI: MAGI3-2
T1 construct: made in house; host or cells: E. coli
Procedure: (§1) The holdup assay was performed on a Tecan freedom Evo200 robot with 384-well plates in singlicate for the three 11-mer PTEN variants and the 13-mer PTEN peptide as described in [31, 32]. Briefly, prior to interaction assay, 2.5 μL of streptavidin resin was saturated in each well with 20 μL of biotinylated PBM peptides (42 μM) and then washed twice with an excess of free biotin, while the reference resin was incubated only with biotin. Right before the holdup experiment, the PDZ library was spiked with an internal standard of lysozyme. Then, the biotin- or PBM-saturated resin was incubated, each in a distinct well of a 384-well plate, with complete cell lysates diluted so that the concentration of the tag-PDZ present in the crude extract is adjusted at 4 μM. After a sufficient time to reach complex equilibrium (15 min.), a fast and mild filtration step is performed and the tag-PDZ concentrations were measured by capillary electrophoresis instrument (LabChip GXII, PerkinElmer, Massachusets, USA). Standard markers were used to convert migration time into molecular weight on the LabChip software and inappropriate molecular weight markers were corrected or excluded.
(§2) For filtered data, the BI was extracted with the following equation (Eq 1) that estimates the depleted fraction after superimposition of the sample and reference electropherograms: BI=Iref−Ilig/Iref (1) where Iref and Ilig are the intensities of the tag-PDZ peaks measured, for each PDZ domain/PBM peptide interaction pair, in the biotin reference and the PBM electropherograms, respectively.
(§3) BIs were transformed into dissociation constants (KD) using the following formula: KD=([PDZtot]−BI·[PDZtot])·([PBMtot]−BI·[PDZtot])/BI·[PDZtot] (2) where [PDZtot] and [PBMtot] correspond to the total concentrations of the PDZ domain (usually around 4 μM) and the PBM peptide used during the assay. Since the PBMtot concentration in the resin during the holdup assay parameter may differ from one peptide to another and remains unknown, it is impossible to directly convert BI values into KD constants. We systematically determined the KD constants for a subset of PDZ/PBM pairs by competitive FP. […] For each PBM, the average peptide concentration was calculated after outlier rejection based on the absolute distances from the median as compared to three times the standard deviation (3σ rule), with never more than 2 values rejected.

MAST1 PDZ 1 = target: T2, MAST1 PDZ 1 (Homo sapiens, UniProt Q9Y2H9); assay: Holdup assay, MAST1-1; assay type: binding; details: for BI: MAST1-1
T2 construct: made in house; host or cells: E. coli
T2 sequence (Q9Y2H9 967-1055 limits assumed): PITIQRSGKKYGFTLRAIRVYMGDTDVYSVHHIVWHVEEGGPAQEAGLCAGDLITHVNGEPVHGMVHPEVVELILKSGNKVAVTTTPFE
Procedure: as §1, §2, §3

NHERF1 PDZ 1 = target: T3, NHERF1 PDZ 1 (Homo sapiens, UniProt O14745); assay: Holdup assay, NHERF1-1; assay type: binding; details: for BI: PDZ domain NHERF1-1
T3 construct: NHERF1-1 as the first PDZ domain of the NHERF1 protein; made in house; host or cells: E. coli
T3 sequence (O14745 14-94 limits assumed): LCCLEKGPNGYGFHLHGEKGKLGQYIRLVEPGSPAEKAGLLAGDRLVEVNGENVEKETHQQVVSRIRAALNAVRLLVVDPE
Procedure: as §1, §2, §3

PARD3 PDZ 3 = target: T4, PARD3 PDZ 3 (Homo sapiens, UniProt Q8TEW0); assay: Holdup assay, PARD3-3; assay type: binding; details: for KD (affinity measured by holdup): PARD3 PDZ 3, singlicate, BI converted to KD, tag-PDZ 4 μM, 15 min, nd: not detected in the holdup assay; for BI: PDZ domain PARD3-3
T4 construct: made in house; host or cells: E. coli
T4 sequence (Q8TEW0 590-677 limits assumed): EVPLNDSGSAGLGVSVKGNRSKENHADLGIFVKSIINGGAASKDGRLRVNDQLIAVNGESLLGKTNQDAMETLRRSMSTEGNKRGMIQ
Procedure: as §1, §2, §3

APBA3-1 = assay: Holdup assay, APBA3-1; assay type: binding, human
DLG2-2 = DLG2-2 (Homo sapiens, UniProt Q15700); assay: Holdup assay, DLG2-2; assay type: binding
Chain of DLG2-2 (Q15700 193-280): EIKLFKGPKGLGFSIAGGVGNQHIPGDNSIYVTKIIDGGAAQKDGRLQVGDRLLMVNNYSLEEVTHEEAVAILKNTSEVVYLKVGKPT

DLG3-2 = target: T5, DLG3-2 (Homo sapiens, UniProt Q92796); assay: Holdup assay, DLG3-2; assay type: binding
T5 sequence (Q92796 244-330): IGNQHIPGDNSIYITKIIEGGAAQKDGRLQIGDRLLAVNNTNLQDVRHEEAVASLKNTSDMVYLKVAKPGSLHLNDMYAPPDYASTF

DLG4-2 = DLG4-2 (Homo sapiens, UniProt P78352); assay: Holdup assay, DLG4-2; assay type: binding
Chain of DLG4-2 (P78352 160-246): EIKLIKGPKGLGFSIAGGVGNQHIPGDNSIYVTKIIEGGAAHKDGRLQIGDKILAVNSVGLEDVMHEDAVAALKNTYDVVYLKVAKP

DLG5-1 = assay: Holdup assay, DLG5-1; assay type: binding, human
FRMPD2-1 = assay: Holdup assay, FRMPD2-1; assay type: binding, human
GORASP1-1 = GORASP1-1 (Homo sapiens, UniProt Q9BQQ3); assay: Holdup assay, GORASP1-1; assay type: binding
Chain of GORASP1-1 (Q9BQQ3 2-440): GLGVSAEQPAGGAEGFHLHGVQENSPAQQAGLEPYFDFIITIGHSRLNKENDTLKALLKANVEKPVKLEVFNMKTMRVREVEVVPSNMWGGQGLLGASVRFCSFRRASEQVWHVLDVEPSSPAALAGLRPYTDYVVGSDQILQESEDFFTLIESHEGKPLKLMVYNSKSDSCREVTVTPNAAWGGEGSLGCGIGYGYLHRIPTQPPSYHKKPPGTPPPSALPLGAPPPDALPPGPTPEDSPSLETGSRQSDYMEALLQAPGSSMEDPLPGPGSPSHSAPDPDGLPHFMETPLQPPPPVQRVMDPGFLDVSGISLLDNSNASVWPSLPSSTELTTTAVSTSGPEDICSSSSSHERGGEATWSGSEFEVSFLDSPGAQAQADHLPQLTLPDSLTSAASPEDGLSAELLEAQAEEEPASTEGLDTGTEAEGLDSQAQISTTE

GRIP2-4 = assay: Holdup assay, GRIP2-4; assay type: binding, human
HTRA2-1 = assay: Holdup assay, HTRA2-1; assay type: binding, human
LDB3-1 = assay: Holdup assay, LDB3-1; assay type: binding, human
LNX1-2 = target: T6, LNX1-2 (Homo sapiens, UniProt Q8TBB1); assay: Holdup assay, LNX1-2; assay type: binding
T6 sequence (Q8TBB1 385-467): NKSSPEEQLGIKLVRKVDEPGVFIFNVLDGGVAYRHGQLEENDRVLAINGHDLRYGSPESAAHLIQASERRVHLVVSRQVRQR

LNX2-4 = assay: Holdup assay, LNX2-4; assay type: binding, human
MAGI2-1 = assay: Holdup assay, MAGI2-1; assay type: binding, human
MAST4-1 = assay: Holdup assay, MAST4-1; assay type: binding, human
GIPC2-1 = target: T7, GIPC2-1 (Homo sapiens, UniProt Q8TF65); assay: Holdup assay, GIPC2-1; assay type: binding
T7 sequence (Q8TF65 1-315): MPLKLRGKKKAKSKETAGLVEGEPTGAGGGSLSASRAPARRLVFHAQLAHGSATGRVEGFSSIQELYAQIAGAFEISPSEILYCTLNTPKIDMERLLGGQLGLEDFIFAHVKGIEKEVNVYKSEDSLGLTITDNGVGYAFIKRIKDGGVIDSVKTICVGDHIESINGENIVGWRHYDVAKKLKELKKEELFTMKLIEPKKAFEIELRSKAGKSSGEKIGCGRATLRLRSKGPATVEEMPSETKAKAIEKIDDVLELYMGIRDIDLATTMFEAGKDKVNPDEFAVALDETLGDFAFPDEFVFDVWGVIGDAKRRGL

T1 sequence (Q5TCQ9 410-492 limits assumed): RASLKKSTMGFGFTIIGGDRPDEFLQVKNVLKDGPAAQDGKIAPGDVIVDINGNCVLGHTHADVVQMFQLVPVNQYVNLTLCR

| SMILES | BI (MAGI3 PDZ 2) | Kd (MAST1 PDZ 1) | BI (MAST1 PDZ 1) | Kd (NHERF1 PDZ 1) | BI (NHERF1 PDZ 1) | KD (affinity measured by holdup) (PARD3 PDZ 3) | BI (PARD3 PDZ 3) | BI (APBA3-1) | LogKD (APBA3-1) | BI (DLG2-2) | BI (DLG3-2) | BI (DLG4-2) | BI (DLG5-1) | BI (FRMPD2-1) | BI (GORASP1-1) | BI (HTRA2-1) | BI (LDB3-1) | BI (LNX2-4) | BI (MAGI2-1) | BI (MAST4-1) | further results |
| --- | --- | --- | --- | --- | --- | --- | --- | --- | --- | --- | --- | --- | --- | --- | --- | --- | --- | --- | --- | --- | --- |
| CC[C@H](C)[C@H](NC(=O)[C@H](CCC(N)=O)NC(=O)[C@@H](NC(=O)[C@H](Cc1c[nH]cn1)NC(=O)[C@H](CCC(N)=O)NC(=O)[C@H](CC(=O)O)NC(=O)[C@H](CCC(=O)O)NC(=O)[C@H](CC(=O)O)NC(=O)CCC(=O)NCCCOCCOCCOCCCNC(=O)CCCC[C@@H]1SC[C@@H]2NC(=O)N[C@@H]21)[C@@H](C)O)C(=O)N[C@H](C(=O)N[C@@H](CCCCN)C(=O)N[C@H](C(=O)O)C(C)C)[C@@H](C)O [PTEN_11] | 0.094 | 38.5 µM | 0.455 | 32.8 µM | 0.494 | 160 µM | -0.078 | -0.03 | 3.519 | 0.168 | 0.13 | 0.124 | -0.042 | -0.044 | 0.037 | 0.07 | -0.027 | -0.124 | -0.04 | -0.08 | LogKD (DLG5-1): 3.519; LogKD (FRMPD2-1): 3.519; LogKD (GORASP1-1): 3.519; BI (GRIP2-4): -0.019; LogKD (GRIP2-4): 3.519; LogKD (HTRA2-1): 3.519; LogKD (LDB3-1): 3.519; BI (LNX1-2): 0.105; LogKD (LNX2-4): 3.519; LogKD (MAGI2-1): 3.519; LogKD (MAST4-1): 3.519 |
| CC[C@H](C)[C@H](NC(=O)[C@H](CCC(N)=O)NC(=O)[C@@H](NC(=O)[C@H](Cc1c[nH]cn1)NC(=O)[C@H](CCC(N)=O)NC(=O)[C@H](CC(=O)O)NC(=O)[C@H](CCC(=O)O)NC(=O)[C@H](CC(=O)O)NC(=O)[C@H](Cc1ccccc1)NC(=O)[C@@H]1CCCN1C(=O)CCC(=O)NCCCOCCOCCOCCCNC(=O)CCCC[C@@H]1SC[C@@H]2NC(=O)N[C@@H]21)[C@@H](C)O)C(=O)N[C@H](C(=O)N[C@@H](CCCCN)C(=O)N[C@H](C(=O)O)C(C)C)[C@@H](C)O [PTEN_13] ({X1-Suc}-PFDEDQHTQITKV-OH) | 0.414 | 7.64 µM | – | – | – | 96 µM | 0.051 | 0.015 | – | 0.054 | 0.089 | -0.004 | -0.048 | -0.07 | 0.076 | -0.097 | -0.021 | 0.093 | -0.114 | 0.058 | Kd (MAGI3 PDZ 2): 21.7 µM; LogKD (DLG2-2): 3.826; LogKD (DLG3-2): 3.826; LogKD (DLG4-2): 3.826; BI (GIPC2-1): -0.087; LogKD (GORASP1-1): 3.826; BI (GRIP2-4): -0.022; BI (LNX1-2): 0.44; Kd (LNX1-2): 19.4 µM |
| CC[C@H](C)[C@H](NC(=O)[C@H](CCC(N)=O)NC(=O)[C@@H](NC(=O)[C@H](Cc1c[nH]cn1)NC(=O)[C@H](CCC(N)=O)NC(=O)[C@H](CC(=O)O)NC(=O)[C@H](CCC(=O)O)NC(=O)[C@H](CC(=O)O)NC(=O)CCC(=O)NCCCOCCOCCOCCCNC(=O)CCCC[C@@H]1SC[C@@H]2NC(=O)N[C@@H]21)[C@@H](C)O)C(=O)N[C@H](C(=O)N[C@@H](CCCCNC(C)=O)C(=O)N[C@H](C(=O)O)C(C)C)[C@@H](C)O [PTEN_Ac] | 0.405 | 26.3 µM | 0.497 | 13.6 µM | 0.652 | – | 0.104 | -0.113 | 3.605 | 0.329 | 0.445 | – | -0.005 | -0.083 | 0.151 | -0.074 | -0.04 | 0.013 | 0.014 | -0.003 | Kd (MAGI3 PDZ 2): 38.8 µM; Kd (DLG2-2): 54.4 µM; Kd (DLG3-2): 32.7 µM; LogKD (DLG5-1): 3.605; LogKD (FRMPD2-1): 3.605; LogKD (GIPC2-1): 3.605; LogKD (HTRA2-1): 3.605; LogKD (LDB3-1): 3.605; BI (LNX1-2): 0.164; LogKD (LNX2-4): 3.605; LogKD (MAGI2-1): 3.605; LogKD (MAST4-1): 3.605 |
| CC[C@H](C)[C@H](NC(=O)[C@H](CCC(N)=O)NC(=O)[C@@H](NC(=O)[C@H](Cc1c[nH]cn1)NC(=O)[C@H](CCC(N)=O)NC(=O)[C@H](CC(=O)O)NC(=O)[C@H](CCC(=O)O)NC(=O)[C@H](CC(=O)O)NC(=O)CCC(=O)NCCCOCCOCCOCCCNC(=O)CCCC[C@@H]1SC[C@@H]2NC(=O)N[C@@H]21)[C@@H](C)O)C(=O)N[C@H](C(=O)N[C@@H](CCCNC(=N)N)C(=O)N[C@H](C(=O)O)C(C)C)[C@@H](C)O [PTEN_KR] ({X1-Suc}-DEDQHTQITRV-OH) | 0.445 | 32.2 µM | 0.42 | 3.45 µM | 0.862 | 56 µM | 0.044 | -0.056 | 3.655 | 0.312 | 0.277 | 0.284 | -0.041 | -0.015 | 0.122 | -0.042 | -0.05 | -0.045 | -0.074 | -0.027 | Kd (DLG2-2): 52.4 µM; Kd (DLG3-2): 62.4 µM; Kd (DLG4-2): 60.2 µM; LogKD (DLG5-1): 3.655; LogKD (FRMPD2-1): 3.655; LogKD (GIPC2-1): 3.655; BI (GRIP2-4): -0.019; LogKD (GRIP2-4): 3.655; LogKD (HTRA2-1): 3.655; LogKD (LDB3-1): 3.655; LogKD (LNX2-4): 3.655; LogKD (MAGI2-1): 3.655; LogKD (MAST4-1): 3.655 |

From article PMC7774954, “Interactomic affinity profiling by holdup assay: Acetylation and distal residues impact the PDZome-binding specificity of PTEN phosphatase” (PLoS ONE, 2020)
